Our source for the Ki values is ChEMBL document CHEMBL1133579, “Derivation of pharmacophore and CoMFA models for leukotriene D(4) receptor antagonists of the quinolinyl(bridged)aryl series” (J Med Chem, 2000).

In assay [1] the target is T1, Cysteinyl leukotriene receptor 1 (Cavia porcellus, UniProt Q2NNR5).
T1 sequence (Q2NNR5 whole entry): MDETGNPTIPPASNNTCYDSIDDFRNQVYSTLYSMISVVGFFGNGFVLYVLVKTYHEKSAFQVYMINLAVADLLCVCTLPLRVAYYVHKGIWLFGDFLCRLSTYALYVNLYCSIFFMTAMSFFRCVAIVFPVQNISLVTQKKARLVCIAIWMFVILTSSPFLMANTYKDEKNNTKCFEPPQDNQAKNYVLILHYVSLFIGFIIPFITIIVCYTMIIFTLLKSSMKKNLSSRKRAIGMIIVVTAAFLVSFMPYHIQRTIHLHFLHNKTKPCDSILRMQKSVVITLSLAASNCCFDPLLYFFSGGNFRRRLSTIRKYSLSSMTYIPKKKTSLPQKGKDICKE
Description: In vitro binding affinity towards Cysteinyl leukotriene D4 receptor by using [3H]LTD4 binding assay in guinea pig lung membranes. It counts as cell membranes, Membrane.

Assay [2] deals with T1, Cysteinyl leukotriene receptor 1. Kind of assay: In vitro binding affinity towards Cysteinyl leukotriene D4 receptor by using [3H]LTD4 binding assay in guinea pig lung membranes; IA means inactive. It counts as cell membranes.

The Ki is the equilibrium dissociation constant of an inhibitor or competing ligand from its target. Higher therefore signals weaker binding. The compound `O=C(Nc1cccc2c(=O)cc(C(=O)O)oc12)c1ccc(OCc2ccc3ccccc3n2)cc1` came in with a Ki in assay [1] of 168 nM.

On to `Cc1ccccc1S(=O)(=O)NC(=O)c1ccc(CCNC(=O)c2ccc3ccc(OCc4ccc5ccccc5n4)cc3c2)cc1`, for which the Ki in assay [1] was found to be 15 nM.

In turn, `CC(C(=O)Nc1ccc(CCCC(=O)O)cc1)c1ccc2cc(OCc3ccc4ccccc4n3)ccc2c1` (stereo not given) came in with a Ki in assay [1] of 38 nM.

The compound `O=C(O)Cc1ccc(CCNS(=O)(=O)c2ccc3ccc(OCc4ccc5ccccc5n4)cc3c2)cc1` yielded a Ki in assay [1] of 2.4 nM.

`O=C(O)CCCc1ccc(NC(=O)Cc2ccc(OCc3ccc4ccccc4n3)cc2)cc1` showed a Ki in assay [1] of 7.3 nM.

In assay [1], `CC(C(=O)NCCCCC(=O)O)c1ccc2cc(OCc3ccc4ccccc4n3)ccc2c1` (stereo not given) gave a Ki of 360 nM.

In turn, `O=C(O)c1ccc(CCNC(=O)C2CCc3ccc(OCc4ccc5ccccc5n4)cc3O2)cc1` (stereo not given) yielded a Ki in assay [1] of 237 nM.

`O=C(O)c1ccc(CCNS(=O)(=O)c2ccc3ccc(OCc4ccc5ccccc5n4)cc3c2)cc1`: the Ki in assay [1] came out at 2.6 nM.

Regarding `Cn1cc(CC(=O)NCc2ccc(-c3nn[nH]n3)cc2)c2cc(OCc3ccc4ccccc4n3)ccc21`, the Ki in assay [1] turned out to be 1050 nM.

In turn, `O=C(Nc1cccc2c(=O)cc(C(=O)O)oc12)c1ccc2ccc(OCc3ccc4ccccc4n3)cc2c1` displayed a Ki in assay [1] of 30 nM.

Turning to `O=C(O)CCCc1ccc(NC(=O)Cc2ccc(OCc3ccc4ccc(Cl)cc4n3)cc2)cc1`, the Ki in assay [1] was 4.8 nM.

`O=C(O)c1ccc2c(ccn2Cc2ccc3ccc(OCc4ccc5ccccc5n4)cc3c2)c1` yielded a Ki in assay [1] of 30 nM.

`O=C(Cc1ccc(OCc2ccc3ccccc3n2)cc1)Nc1ccc(CCCc2nnn[nH]2)cc1`: the affinity in assay [1] corresponds to a Ki of 88 nM.

With `CN(C(=O)Cc1ccc(OCc2ccc3ccccc3n2)cc1)c1ccc(CCCC(=O)O)cc1`, in assay [1], the Ki was 297 nM.

With `O=C(O)c1ccc(CCNC(=O)c2ccc3ccc(OCc4ccc5ccccc5c4)cc3c2)cc1`, the inhibitory constant (Ki) result in assay [2] was “Not Active”.

In assay [1], `CC(C(=O)Nc1ccc(C(=O)O)cc1)c1ccc2cc(OCc3ccc4ccccc4n3)ccc2c1` (stereo not given) had a Ki of 118 nM.

For the compound `CC(C(=O)NCc1cccc(-c2nnn[nH]2)c1)c1ccc2cc(OCc3ccc4ccccc4n3)ccc2c1` (stereo not given), the affinity in assay [1], expressed as Ki, was 29 nM.

In turn, `CC(C(=O)NCc1ccc(C(=O)O)cc1)c1ccc2cc(OCc3ccc4ccccc4n3)ccc2c1` (stereo not given) had a Ki in assay [1] of 70 nM.

Regarding `O=C(Cc1ccc(OCc2ccc3ccccc3n2)cc1)Nc1ccc(Cc2nnn[nH]2)cc1`, the Ki in assay [1] was 108 nM.

With `O=C(O)c1ccc(CCCOc2ccc3ccc(OCc4ccc5ccccc5n4)cc3c2)cc1`, affinity in assay [1] was put at a Ki of 5.6 nM.

Compound `O=C(O)CCCc1ccc(NC(=O)Cc2cccc(OCc3ccc4ccccc4n3)c2)cc1` yielded a Ki in assay [1] of 40 nM.

The compound `O=C(Nc1ccc(CCCc2nnn[nH]2)cc1)c1ccc(OCc2ccc3ccccc3n2)cc1` registered a Ki in assay [1] of 595 nM.

Take `CC(C(=O)NCc1ccc(CC(=O)O)cc1)c1ccc2cc(OCc3ccc4ccccc4n3)ccc2c1` (stereo not given): the affinity in assay [1] corresponds to a Ki of 134 nM.

In the case of `Cc1cn(Cc2ccc3ccccc3n2)c2cc(C(=O)NCCc3ccc(C(=O)O)cc3)ccc12`, the Ki entry in assay [2] is recorded as “Not Active”.

In assay [1], `O=C(O)c1ccc(CCNC(=O)c2ccc3ccc(OCc4ccc5ccccc5n4)cc3c2)cc1` came in with a Ki of 1.05 nM.

In turn, `O=C(O)c1ccc(CCNC(=O)c2ccc3ccc(OCc4ccc(-c5ccccc5)cn4)cc3c2)cc1` registered an inhibition constant (Ki) in assay [1] of 79 nM.

As to `O=C(O)c1ccc(OCC(O)COc2ccc3ccc(OCc4ccc5ccccc5n4)cc3c2)cc1` (stereo not given), in assay [1], the Ki is 4 nM.

Take `O=C(Cc1ccc(OCCCCc2ccccc2)cc1)Nc1ccc(CCCc2nnn[nH]2)cc1`: the Ki in assay [1] was 2590 nM.

On to `O=C(O)c1ccc(CCNC(=O)c2cc(=O)c3ccc(OCc4ccc5ccccc5n4)cc3o2)cc1`, for which the Ki result in assay [2] is “Not Active”.

In assay [1], `O=C(O)c1ccc(Cc2noc(-c3ccc4ccc(OCc5ccc6ccccc6n5)cc4c3)n2)cc1` registered a Ki of 15 nM.
